According to US10167346B2, “Compositions and methods for making alpha-(1,2)-branched alpha-(1,6) oligodextrans” (TATE & LYLE INGREDIENTS FRANCE SAS, priority 2009, dated 2019):

System: Caenorhabditis elegans
Assay: lipid content in the in vivo model Caenorhabditis elegans
Conditions: positive control, concentration not given
Method: Oligodextrans according to the present invention were evaluated for their effect on lipid content using the in vivo model Caenorhabditis elegans. The substrates evaluated were TLD-1000 (unbranched 1 kDa dextran) and TLD-1030 (1 kDa dextran+32% α-1,2). […] A negative control (DMSO) and positive control (Orlistat) were also included. Each substrate was assayed four times with a total of 120 worms per substrate and concentration.

CCCCCCCCCCC[C@@H](C[C@@H]1OC(=O)[C@H]1CCCCCC)OC(=O)[C@H](CC(C)C)NC=O [Orlistat]
reduction in lipid content: > 40%
